These results are taken from US8536196B2, “Substituted 1,3-dioxanes useful as PPAR modulators” (Evolva SA, priority 2007, dated 2013).

One data set addresses T1, PPARgamma (h) (Homo sapiens, UniProt P37231).
T1 construct: host or cells: E. coli
T1 sequence (P37231 1-505): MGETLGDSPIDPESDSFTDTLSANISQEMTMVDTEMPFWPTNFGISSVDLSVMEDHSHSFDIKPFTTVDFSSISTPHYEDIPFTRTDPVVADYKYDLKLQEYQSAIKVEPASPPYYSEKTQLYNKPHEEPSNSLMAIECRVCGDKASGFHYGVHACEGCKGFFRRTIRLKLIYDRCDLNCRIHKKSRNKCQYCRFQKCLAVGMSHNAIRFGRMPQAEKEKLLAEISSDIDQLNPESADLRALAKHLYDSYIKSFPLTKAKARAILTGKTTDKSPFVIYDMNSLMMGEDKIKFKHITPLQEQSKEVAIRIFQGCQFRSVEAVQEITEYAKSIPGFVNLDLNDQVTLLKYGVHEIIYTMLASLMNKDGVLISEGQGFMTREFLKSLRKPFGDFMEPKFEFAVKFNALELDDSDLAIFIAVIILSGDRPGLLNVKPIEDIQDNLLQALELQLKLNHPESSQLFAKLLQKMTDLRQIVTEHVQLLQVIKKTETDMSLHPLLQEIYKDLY
The data set is described as follows: Human recombinant (E. coli) PPARgamma (h) binding assay. As to conditions: @ 10 μM. The method, then:
The results are expressed as a percent of control specific binding ((measured specific binding/control specific binding)×100) obtained in the presence of the test compounds. The IC50 values (concentration causing a half-maximal inhibition of control specific binding) and Hill coefficients (nH) were determined by non-linear regression analysis of the competition curves generated with mean replicate values using Hill equation curve fitting (Y=D+[(A D)/(1+(C/C50)nH)], where Y=specific binding, D=minimum specific binding, A=maximum specific binding, C=compound concentration, C50=IC50, and nH=slope factor). This analysis was performed using a software developed at Cerep (Hill software) and validated by comparison with data generated by the commercial software SigmaPlot® 4.0 for Windows® (© 1997 by SPSS Inc.). The inhibition constants (Ki) were calculated using the Cheng Prusoff equation (Ki=IC50/(1+(L/KD)), where L=concentration of radioligand in the assay, and KD=affinity of the radioligand for the receptor).

The next data set concerns KKA^y mice. The data set can be described thus: Glucose lowering effect in KKAy mouse model. To be noted: 5 mg/kg BID oral gavage 14 days, Day 14, average ± S.E.M., 5 mg/kg. Format: in vivo. As for the experimental part: 52 male KKA^y mice were obtained commercially (e.g., from Clea Japan) at an age of 6 weeks and put on a high fat diet upon arrival. Individual mice were housed in IVC Type II cages during both the acclimatization and the experimental phase. Both food (high fat diet) and water were supplied ad libitum.
Mice were randomized into treatment groups according to their 4-h fasting blood glucose.
4 hours after the last administration, non-fasting conditions.
Blood was collected into heparin containing glass capillaries which were subsequently centrifuged in a “Haematokrit 24” centrifuge (Hettich) at 15′200×g for 10 min at room temperature to obtain the hematocrit value.
The following serum parameters were determined on a COBAS INTEGRA 800 auto analyzer (Roche Diagnostics, Switzerland) using the reagents and protocols provided by the supplier.
All measurements were made on Day 14 of administration, except for the food intake and body weight measurements that were made on Day 12.

The test system of the next data set is MEFs / 3T3-L1. The data set can be described thus: Adipocyte differentiation induction assay (Oil Red O staining). Also on record: key to Adip. (adipocyte differentiation): 0: similar results to DPD; −1: even less adipocyte differentiation; +1: more adipocyte differentiation (both relative to DPD). Format: cell-based, mouse. To be noted: for Adip. (adipocyte differentiation): relative to DPD (SN1). The method, then: This example describes an assay for determining adipocyte differention. Compounds are tested to see whether they induce adipocyte differentiation and also to see whether they inhibit adipocyte differention.
MEFs were grown in AmnioMax basal medium (Gibco) supplemented with 7.5% Amniomax supplement C-100 (Gibco), 7.5% Fetal Bovine Serum (FBS), 2 mM Glutamine, 62.5 μg/ml penicillin and 100 μg/ml Streptomycin (growth medium). At confluence, MEFs were induced to differentiation in growth medium with the addition of 1 μM dexamethasone (Sigma) 0.5 mM isobutylmethylxanthine (Sigma), 5 μg/ml insulin (Sigma) and 10 μM test compound dissolved in DMSO or DMSO alone. Medium was subsequently renewed every 48 hrs with growth media supplemented with 5 μg/ml Insulin and ligand or DMSO.
Briefly, to test compounds as inducers of adipocyte differentiation, 3T3-L1 are grown to confluence in DMEM with 10% Calf serum (CS), typically in 24 well dishes. At 2 days post confluence (day 0), cells are induced to differentiate with DMEM supplemented with 10% fetal bovine serum (FBS), 1 μM dexamethasone and the test compound (01, 1 and 10 μM). BRL49653 (1.0 μM dissolved in 100% DMSO) is used as a positive control. After 48 h, the cells are re-fed with DMEM containing 10% FBS supplemented with the test compound or the positive control. From day 4, cells are grown in DMEM with 10% FBS and are changed every second day until day 8. At day 8, cells are stained with Oil Red O as described below.
Cells cultured as described above are used for Oil Red staining. Dishes are washed in PBS and cells were fixed in 3.7% paraformaldehyde for 1 h and stained with oil red O as described in (Hansen et al 1999). Oil red O solution stock solution is prepared by dissolving 0.5 g of Oil Red O (Sigma) in 100 mL of isopropanol. Oil re 0 working solution is prepared by diluting a stock solution with water (6:4) followed by filtration.
Table II summarizes results obtained with different analogs of DPD (SN1), “0” representing similar results to DPD, “−1” representing even less adipocyte differentiation, “+1” representing more adipocyte differentiation (both relative to DPD) and “−” meaning not assayed.

The target of the next data set is T2, Gal4-PPARgammaLBD (Homo sapiens, UniProt P37231).
T2 construct: expressed in transfected cells; host or cells: mouse embryonic fibroblasts (MEFs) or ME3 cells
T2 sequence (P37231 204-505): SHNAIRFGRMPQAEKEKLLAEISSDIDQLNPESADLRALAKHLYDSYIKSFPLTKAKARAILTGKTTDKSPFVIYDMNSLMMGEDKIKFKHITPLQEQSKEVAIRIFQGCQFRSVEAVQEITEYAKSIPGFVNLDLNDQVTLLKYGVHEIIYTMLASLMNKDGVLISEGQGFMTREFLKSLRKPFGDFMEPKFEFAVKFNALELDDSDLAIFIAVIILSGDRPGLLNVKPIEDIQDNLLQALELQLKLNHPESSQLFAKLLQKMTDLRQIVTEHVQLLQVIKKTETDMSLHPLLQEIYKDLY
The data set is described as follows: PPARgamma transactivation assay (Gal4-PPARgammaLBD, UASx4-TK-luc reporter). Format: cell-based. An excerpt: This is an example of a transactivation assay for determining PPAR gamma modulating activity.
The UASx-4-TK-luc reporter construct (where UAS refers to “upstream activator sequence”) contains four Gal4-responsive elements. The plasmid Gal4-PPARgammaLBD encodes a Gal4-DBD-PPARgamma-LBD fusion protein (i.e. the DNA-binding domain, DBD, of Gal4 fused to the ligand-binding domain, LBD, of PPARgamma) capable of transactivating the UASx-4-TK-luc reporter plasmid by binding to the UAS. The CMV-beta-galactosidase plasmid (where CMV is cytomegalovirus) is used for normalization of experimental values.
The cells were replated, typically in 24 well plates, so that at the time of transfection the cells are 50-70% confluent.
Briefly, per well in a 24 well plate, UASx4TKIuc (0.2 μg) Gal4-PPARgammaLBD (or pM-hPPARgamma-LBD; 0.1 μg) and CMV-beta-galactosidase (0.05 μg) in 30 μL DMEM (free of serum and antibiotics) is mixed with 30 μL DMEM (free of serum and antibiotics) containing 1 μL metafectenein. The mixture is incubated at room temperature for 20 min to allow formation of nucleic acid-lipid complexes and then approximately 60 μL is added to each well containing the 50-60% confluent cells. […] Cells were harvested after 12-24 hours and luciferase and beta-galactosidase activities were measured according to standard protocols.
“−” means that testing was not performed.

In the next data set the target is T3, mPPARalphaLBD (Mus musculus, UniProt P23204).
T3 construct: expressed in transfected cells
T3 sequence (P23204 239-466 limits assumed): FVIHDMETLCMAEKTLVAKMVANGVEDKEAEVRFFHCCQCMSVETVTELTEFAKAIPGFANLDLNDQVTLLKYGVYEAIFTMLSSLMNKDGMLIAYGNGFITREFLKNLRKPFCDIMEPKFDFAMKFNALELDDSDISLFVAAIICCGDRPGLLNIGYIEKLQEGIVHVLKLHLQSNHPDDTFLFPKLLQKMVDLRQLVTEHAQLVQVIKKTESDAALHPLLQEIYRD
The data set is described as follows: PPARalpha transactivation assay. Format: cell-based. As for the experimental part:
This example describes a transactivation assay for determining PPARalpha modulating activity.
DPD and other ligands are tested for their ability to transactivate PPARalpha essentially as described in Example 22.

Turning to `COc1ccc(C(=O)NCc2cccnc2)cc1C(=O)NCc1cccnc1` [Picotamide, reference compound], on PPARgamma (h), the “PPARgamma binding @ 10 μM” value is listed as “no binding”.
In the case of `CN(CCOc1ccc(CC2SC(=O)NC2=O)cc1)c1ccccn1` (stereo not drawn) [Rosiglitazone, rosiglitazone, reference compound], in the data set on KKA^y mice, the Heart weight entry is on record as “increased”.
`O=C(O)CC/C=C\C[C@@H]1COC(c2coc3ccc(Cl)cc3c2=O)O[C@@H]1c1ccccc1O` (stereo partly drawn) [compound 13]: in the data set with MEFs / 3T3-L1, the “adipocyte differentiation (summary in words)” value was “low or no adipocyte differentiation” and the “Adip. (adipocyte differentiation)” value is listed as −1. Besides, the “PPARgamma activity (summary in words)” value at Gal4-PPARgammaLBD is given as “higher potency”.
As to `O=C(O)CC/C=C\C[C@@H]1COC(c2ccccc2-c2ccccc2)O[C@@H]1c1ccccc1O` (stereo partly drawn) [compound 10], the “Adip. (adipocyte differentiation)” value in the data set on MEFs / 3T3-L1 was 0. For the same compound, the “PPARgamma activity (summary in words)” value on Gal4-PPARgammaLBD is “PPARgamma antagonist”. Also, at Gal4-PPARgammaLBD (level of activity relative to 10 μM DPD (SN1)), the “PPAR (PPARgamma activating activity)” value is “Antagonist”.
Consider `CC(C)(Sc1ccc(CCN(CCCCC2CCCCC2)C(=O)NC2CCCCC2)cc1)C(=O)O` [GW7647, reference compound], for which the “increase in PPARalpha transactivation” value at mPPARalphaLBD is on record as “over 2 fold”.
